Reference: a melting point compilation (Tetko et al.)

| SMILES | melting point [°C] |
| --- | --- |
| CCOC(=O)C(C=Cc1cccc(C=CC(C(=O)OCC)C(=O)OCC)c1)C(=O)OCC | 100 to 102 |
| c1ccc2c(c1)c1ccccc1n2CC1CO1 (configuration not stated) | 110 to 112 |
| CC(C)(C)c1cc(C(C)(C)C)n(-c2ccc(N)cc2)n1 | 205 to 207 |
| CN(C)c1ccc(N=c2cc(-c3ccccc3)oc(-c3ccccc3)c2)cc1 | 148 |
| Cc1ccccc1[N+](=O)[O-] | -4 |
| OCc1cn2ccsc2n1 | 154 to 155 |
| NC(=NO)c1cc(C(F)(F)F)cc(C(F)(F)F)c1 | 131 to 133 |
| C1=CCC=C1 | -85 |
| Clc1cccc2c(-c3ccccc3)c(-c3ccccc3)[nH]c12 | 97 to 98 |
| CCOC(=O)C(=O)CC(C)=O | 16 to 18 |
| CSc1nc(N)n[nH]1 | 130 to 133 |
| NC1CCC(c2ccccc2)CC1CO (configuration not stated) | 116 to 122 |
| O=C1CC2CCCCC2C1 (configuration not stated) | 10 |
| O=[N+]([O-])Nc1ccccc1 | 47.3 |
| CCCCCCc1ccc(-c2ccccc2)cc1 | 30 |
| CC=CC(=O)OC1CC2OC3C=C(C)C(=O)CC3(C)C1(C)C21CO1 (configuration not stated) | 118 |
| CC1CCC(C(C)C)C(OC(=O)C(Cc2ccccc2)c2ccccc2)C1 (configuration not stated) | 101 |
| COc1ccc([N+](=O)[O-])cc1 | 54 |
| C=C(C)C(CC)CC | -113 |
| COC(=O)C(F)(F)C(F)(F)C(F)(F)F | -86 |
| CSc1nnc(C(C)(C)C)c(=O)n1N=CC(C)C | 159 |
| CC1OC(OC2C(Oc3cc(O)c4c(c3)OC(c3ccc(O)cc3)CC4=O)OC(CO)C(O)C2O)C(O)C(O)C1O (configuration not stated) | 166 |
| O=C(O)c1ccc(-n2nc(C(=O)c3cccs3)s/c2=N\C(=O)c2ccccc2)cc1 | 219 |
| C1CCSCC1 | 19 |
| CN1CCC(N2CCNCC2)CC1 | 31 |
| CCCCCC(C)CCC (configuration not stated) | -99 |

Further lines, results first:

| melting point [°C] | SMILES |
| --- | --- |
| 160 to 161 | Cc1ccc(C(=O)O)c(N)c1 |
| 93 to 95 | OCc1csc(-c2cccc(Cl)c2)n1 |
| 267 to 268 | O=[N+]([O-])c1ccc(NN=Cc2cccc3c(Br)cccc23)cc1 |
| 111 | COC(=O)c1ccc(OC)c([N+](=O)[O-])c1 |
| 127 to 129 | O=[N+]([O-])c1cccnc1Sc1ccc(Cl)cc1 |
| 153 to 154 | O=[N+]([O-])c1cc([N+](=O)[O-])c(C2CO2)cc1C1CO1 (configuration not stated) |
| 264 to 266 | Cn1c(=O)cc(O)c2ccccc21 |
| 98 to 101 | Cc1nc2ccc(S(=O)(=O)Cl)cc2s1 |
| 83 | Cc1ccc(NC(=O)C(F)(F)C(F)(F)C(F)(F)C(F)(F)C(F)(F)C(F)(F)C(F)(F)C(F)(F)F)c(C)c1 |
| 300 | O=S(=O)(O)c1cccc2cnccc12 |
| 165 | O=C(c1ccccc1)c1noc(-c2ccc([N+](=O)[O-])cc2)c1S(=O)(=O)c1ccccc1 |
| 59 | Cc1ccc(F)c(C#N)c1Cl |
| 74.5 | CCCCC(=O)c1ccc(N)cc1 |
| 57 | COC(=O)Cc1ccc(O)cc1 |
| 143 to 146 | O=C(O)c1ccc2c(c1)OCCCO2 |
| 212 | O=C(C(=O)c1cc(Br)ccc1O)c1cc(Br)ccc1O |
| 96 to 98 | CC(=O)CSc1ccc(C)cc1 |
| 240 to 255 | Oc1cc(O)nc(S)n1 |
| 163 to 165 | CCOC(=O)c1c(NC(=S)Nc2ccc(OC)cc2)sc2c1CCCC2 |
| 204 to 206 | Oc1ccc(-n2ccnc2)cc1 |
| 110 to 114 | O=C(Cl)c1cccc2nsnc12 |
| 87 to 89 | OCc1ccc(-n2ccnc2)cc1 |
| 67 | O=Cc1ccc(Br)cc1 |
| 228 to 232 | Cc1ccnc(O)c1[N+](=O)[O-] |
| 195 to 200 | Cc1c(Br)c(Br)c(O)c(Br)c1Br |
| 259 to 260 | CCOc1cc2c(cc1OCC)C(CC(=O)O)NCC2 (configuration not stated) |
